Laboratory results from article doi:10.1101/2024.08.19.608619, “Discovery of potent SARS-CoV-2 nsp3 macrodomain inhibitors uncovers lack of translation to cellular antiviral response” (bioRxiv, 2024).
Where two headings read alike, the source gives them in different places.

Legend:
SARS-CoV-2 nsp3-mac1 [1] = target: T1, SARS-CoV-2 nsp3-mac1 (Severe acute respiratory syndrome coronavirus 2, UniProt P0DTD1); experiment: biochemical; assay type: biochemical; conditions: SARS-CoV-2 nsp3 macrodomain TR-FRET single point
SARS-CoV-2 nsp3-mac1 [2] = target: T1, SARS-CoV-2 nsp3-mac1; experiment: biochemical; design: SARS-CoV-2 nsp3 macrodomain TR-FRET single point, per cent inhibition, n=2
[3] = read-out: perc_inhibition_mean, batch_name=ASAP-0000399-001
[4] = read-out: perc_inhibition_mean, batch_name=ASAP-0000400-001
[5] = read-out: perc_inhibition_mean, batch_name=ASAP-0000401-001
[6] = read-out: perc_inhibition_mean, batch_name=ASAP-0000402-001
[7] = read-out: perc_inhibition_mean, batch_name=ASAP-0000403-001
[8] = read-out: perc_inhibition_mean, batch_name=ASAP-0000404-001
[9] = read-out: perc_inhibition_mean, batch_name=ASAP-0000405-001
[10] = read-out: perc_inhibition_mean, batch_name=ASAP-0000406-001
[11] = read-out: perc_inhibition_mean, batch_name=ASAP-0000407-001
[12] = read-out: perc_inhibition_mean, batch_name=ASAP-0000408-001
[13] = read-out: perc_inhibition_mean, batch_name=ASAP-0000409-001
[14] = read-out: perc_inhibition_mean, batch_name=ASAP-0000410-001
[15] = read-out: perc_inhibition_mean, batch_name=ASAP-0000411-001
[16] = read-out: perc_inhibition_mean, batch_name=ASAP-0000412-001
[17] = read-out: perc_inhibition_mean, batch_name=ASAP-0000413-001
[18] = read-out: perc_inhibition_mean, batch_name=ASAP-0000414-001
[19] = read-out: perc_inhibition_mean, batch_name=ASAP-0000415-001

Structure (SMILES) | perc_inhibition_mean (SARS-CoV-2 nsp3-mac1 [1]; concentration 49.75 uM) [%] | perc_inhibition_mean (SARS-CoV-2 nsp3-mac1 [1]; concentration 99.5 uM) [%] | other results
O=C(N[C@@H]1COCC[C@H]1O)c1cnn2ccc(C3CCN(C(=O)c4ccccc4)CC3)cc12 [ASAP-0000399] | -5.013 | -4.477 | inhibition at 49.75 µM (SARS-CoV-2 nsp3-mac1 [2]; [3]): -5.01%; inhibition at 99.5 µM (SARS-CoV-2 nsp3-mac1 [2]; [3]): -4.48%
Cc1cc(CNC(=O)c2cnn3ccc(C4CCN(C(=O)c5ccccc5)CC4)cc23)n(C)n1 [ASAP-0000400] | -5.508 | -8.125 | inhibition at 49.75 µM (SARS-CoV-2 nsp3-mac1 [2]; [4]): -5.51%; inhibition at 99.5 µM (SARS-CoV-2 nsp3-mac1 [2]; [4]): -8.12%
O=C(CCN(Cc1cccc(Cl)c1)C(=O)C1CCC(O)CC1)N1CCNCC1 (centres unmarked) [ASAP-0000401] | -4.315 | 0.465 | inhibition at 49.75 µM (SARS-CoV-2 nsp3-mac1 [2]; [5]): -4.32%; inhibition at 99.5 µM (SARS-CoV-2 nsp3-mac1 [2]; [5]): 0.465%
O=C(c1ccnc(S)c1)N1CCC(c2ccn3ncc(C(=O)N4CCCCC4)c3c2)CC1 [ASAP-0000402] | 20.252 | 35.496 | inhibition at 49.75 µM (SARS-CoV-2 nsp3-mac1 [2]; [6]): 20.3%; inhibition at 99.5 µM (SARS-CoV-2 nsp3-mac1 [2]; [6]): 35.5%
O=C1CCN(C(=O)c2cnn3ccc(C4CCN(C(=O)c5ccccc5)CC4)cc23)CCN1 [ASAP-0000403] | -2.402 | -7.808 | inhibition at 49.75 µM (SARS-CoV-2 nsp3-mac1 [2]; [7]): -2.4%; inhibition at 99.5 µM (SARS-CoV-2 nsp3-mac1 [2]; [7]): -7.81%
O=C(c1ccccc1)N1CCC(c2ccn3ncc(C(=O)N4CCn5ncnc5C4)c3c2)CC1 [ASAP-0000404] | -3.769 | -3.519 | inhibition at 49.75 µM (SARS-CoV-2 nsp3-mac1 [2]; [8]): -3.77%; inhibition at 99.5 µM (SARS-CoV-2 nsp3-mac1 [2]; [8]): -3.52%
O=C(c1ccncc1)N1CCC(c2ccn3ncc(C(=O)N4CCCCC4)c3c2)CC1 [ASAP-0000405] | 10.851 | 26.497 | inhibition at 49.75 µM (SARS-CoV-2 nsp3-mac1 [2]; [9]): 10.9%; inhibition at 99.5 µM (SARS-CoV-2 nsp3-mac1 [2]; [9]): 26.5%
CCN1CCN(C(=O)c2cnn3ccc(C4CCN(C(=O)c5ccccc5)CC4)cc23)CC1=O [ASAP-0000406] | -8.634 | -3.464 | inhibition at 49.75 µM (SARS-CoV-2 nsp3-mac1 [2]; [10]): -8.63%; inhibition at 99.5 µM (SARS-CoV-2 nsp3-mac1 [2]; [10]): -3.46%
C[C@@H](NC(=O)c1cnn2ccc(C3CCN(C(=O)c4ccccc4)CC3)cc12)c1cc[nH]n1 [ASAP-0000407] | -4.99 | -2.773 | inhibition at 49.75 µM (SARS-CoV-2 nsp3-mac1 [2]; [11]): -4.99%; inhibition at 99.5 µM (SARS-CoV-2 nsp3-mac1 [2]; [11]): -2.77%
O=C(CCN(Cc1cccc(Cl)c1)C(=O)[C@@H]1CC1(F)F)N1CCNCC1 [ASAP-0000408] | -2.073 | -3.764 | inhibition at 49.75 µM (SARS-CoV-2 nsp3-mac1 [2]; [12]): -2.07%; inhibition at 99.5 µM (SARS-CoV-2 nsp3-mac1 [2]; [12]): -3.76%
O=C(CCN(Cc1cccc(Cl)c1)C(=O)c1ccc(O)cc1)N1CCNCC1 [ASAP-0000409] | -0.343 | -1.632 | inhibition at 49.75 µM (SARS-CoV-2 nsp3-mac1 [2]; [13]): -0.343%; inhibition at 99.5 µM (SARS-CoV-2 nsp3-mac1 [2]; [13]): -1.63%
Cc1nsc(N(C)C(=O)c2cnn3ccc(C4CCN(C(=O)c5ccccc5)CC4)cc23)n1 [ASAP-0000410] | -10.512 | -11.519 | inhibition at 49.75 µM (SARS-CoV-2 nsp3-mac1 [2]; [14]): -10.5%; inhibition at 99.5 µM (SARS-CoV-2 nsp3-mac1 [2]; [14]): -11.5%
O=C(c1ccccc1)N1CCC(c2ccn3ncc(C(=O)N4CCc5cccnc54)c3c2)CC1 [ASAP-0000411] | -4.67 | -8.02 | inhibition at 49.75 µM (SARS-CoV-2 nsp3-mac1 [2]; [15]): -4.67%; inhibition at 99.5 µM (SARS-CoV-2 nsp3-mac1 [2]; [15]): -8.02%
CN(C[C@H]1CCCN1)C(=O)c1cnn2ccc(C3CCN(C(=O)c4ccccc4)CC3)cc12 [ASAP-0000412] | -7.471 | -6.586 | inhibition at 49.75 µM (SARS-CoV-2 nsp3-mac1 [2]; [16]): -7.47%; inhibition at 99.5 µM (SARS-CoV-2 nsp3-mac1 [2]; [16]): -6.59%
O=C1CC[C@@H](CNC(=O)c2cnn3ccc(C4CCN(C(=O)c5ccccc5)CC4)cc23)N1 [ASAP-0000413] | -2.317 | -1.468 | inhibition at 49.75 µM (SARS-CoV-2 nsp3-mac1 [2]; [17]): -2.32%; inhibition at 99.5 µM (SARS-CoV-2 nsp3-mac1 [2]; [17]): -1.47%
Cc1[nH]ncc1CN(C)C(=O)c1cnn2ccc(C3CCN(C(=O)c4ccccc4)CC3)cc12 [ASAP-0000414] | -1.138 | 0.307 | inhibition at 49.75 µM (SARS-CoV-2 nsp3-mac1 [2]; [18]): -1.14%; inhibition at 99.5 µM (SARS-CoV-2 nsp3-mac1 [2]; [18]): 0.307%
O=C(c1cccnc1O)N1CCC(c2ccn3ncc(C(=O)N4CCCCC4)c3c2)CC1 [ASAP-0000415] | -7.036 | -3.94 | inhibition at 49.75 µM (SARS-CoV-2 nsp3-mac1 [2]; [19]): -7.04%; inhibition at 99.5 µM (SARS-CoV-2 nsp3-mac1 [2]; [19]): -3.94%
